Data from US20070213291A1, “Therapeutically useful synthetic oligonucleotides” (priority 1999, published 2007).

How the values were obtained:
[1] = system: Jurkat human leukemia T cells; experiment: Inhibition of Jurkat human leukemia T cell proliferation (MTT reduction); assay type: cell-based; settings: for % INHIBITION of Jurkat human leukemia T cell proliferation: 100 μg/ml sequence, 48 h, 2.5×10^5 cells/ml
Summary of the method: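 Read-out is MTT absorbance at 570 nm after 48 h. Sequences of 2 to 45 bases (A, C, G, T) tested at 100 μg/ml against untreated control, with 2.5×10^5 Jurkat cells/ml held at 37° C under 5% CO2.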

[2] = Melting temperature (Tm) of sequences; assay type: physicochemical
[3] = system: MCF-7 human breast cancer cells; experiment: Inhibition of MCF-7 cell proliferation (MTT); assay type: cell-based
Summary of the method: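 Cells at 2.5×10^5 cells/ml (GT 3- and 6-base series at 5×10^5 cells/ml) treated with 100 μg/ml of 2-45-base oligonucleotide sequences versus untreated control for 48 h at 37 °C, 5% CO2. Proliferation read by MTT reduction at 570 nm.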

[4] = system: EL-4 murine T lymphoma cells; experiment: Inhibition of EL-4 cell proliferation (MTT); assay type: cell-based; settings: 100 μg/ml, 48 h
Description: (§1) Cells were seeded in 6 (1 ml/well), 24 (0.5 ml/well) or 96 (0.1 ml/well) well flat-bottom microplates and were maintained at 37° C. in a 5% CO2 atmosphere. Unless stated otherwise, 2.5×10^5 cells/ml were incubated with 0 μg/ml (control) and 100 μg/ml (treated) of 2 to 45 base sequences containing A, C, G and T for 48 h.
(§2) Cell proliferation was measured using dimethylthiazol-diphenyl-tetrazolium (MTT) reduction (Mosman et al. J. Immunol. Methods 65:55, 1983). MTT was measured at a wavelength of 570 nm using a multiplate spectrophotometer reader (ELX800, Bio-TEK Instruments Inc., Winooski, Vt.).
EL-4 murine lymphoma T cells are a suspension tumor model. EL-4 murine lymphoma T cells were incubated with 6, 18, 27 and 33 base GT sequences and with a 15 base ACG sequence (Table 18).

[5] = system: D-17 canine osteosarcoma cells; experiment: Inhibition of D-17 cell proliferation (MTT); assay type: cell-based; settings: 100 μg/ml, 48 h, 5×10^5 cells/ml
Description: as §1, §2
(§3) D-17 canine osteosarcoma cells and CF-51 canine mammary gland cancer cells are solid tumor models. D-17 canine osteosarcoma cells (5×10^5 cells/ml) (Table 20) and CF-51 canine mammary gland cancer cells (5×10^5 cells/ml) (Table 21) were incubated with 6, 9, 17, 27 and 33 base GT-sequences and with a 15 base ACG sequence.

[6] = system: CF-51 canine mammary gland cancer cells; experiment: Inhibition of CF-51 cell proliferation (MTT); assay type: cell-based; settings: 100 μg/ml, 48 h, 5×10^5 cells/ml
Description: as §1, §2, §3

[7] = system: Jurkat human leukemia T cells; experiment: Cell cycle stage in Jurkat cells (propidium iodide flow cytometry); assay type: cell-based; settings: Jurkat; for % of cells in phase: G0/G1 / % of cells in phase: G2/M / % of cells in phase: SE / % of cells in phase: SL / % of cells in phase: SM / Arrest (cell cycle): 24 h, 100 μg/ml
Summary of the method: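 Phase distribution (G0/G1, early, mid and late S, G2/M) came from flow cytometry with doublet discrimination on propidium iodide-stained nuclei. Jurkat cells were given 24 h exposure to 2–45-base oligonucleotides, or at 1×10^6 cells/ml to single 6-base GT or AC strands heated 10 min at 65 °C or 1:1 hybridized duplex.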

[8] = system: Jurkat human leukemia T cells; experiment: NuMA release into supernatant (ELISA); assay type: cell-based; settings: Jurkat 1×10^6/ml
Summary of the method: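 Jurkat T cells (1×10^6/ml) exposed to GT-containing oligonucleotide sequences, at 50 μM in some experiments, for 24 h in some experiments. NuMA released into the supernatant quantified by commercial ELISA.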

[9] = system: EL-4 murine T lymphoma cells; experiment: EL-4 murine T lymphoma in C57/BL6 mice; assay type: in vivo; settings: after 4 weeks of treatment, compared with group 1 (saline)
Description: EL-4 murine T lymphoma cells are implanted into C57/BL6 mice. The mice are divided into 6 groups of 10 mice. On day 0, group 1 mice receive saline, group 2 mice receive 3 base GT SEQ ID NO:8, group 3 mice receive 6 base SEQ ID NO:25, group 4 mice receive 6 base AG SEQ ID NO:45, group 5 mice receive 18 base GT SEQ ID NO: 18 and group 6 mice receive 27 base GT SEQ ID NO:1. After 4 weeks of treatment, the mice are sacrificed and tumor mass is determined.

[10] = system: Jurkat human leukemia T cells; experiment: Apoptosis by phosphatidylserine/annexin V-FITC flow cytometry; assay type: cell-based; settings: M. phlei murA derived sequences
Summary of the method: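 Jurkat cells were exposed to 3–7-base oligonucleotides (GT, ACGT, AG, GG, AGT, CGT sequences) at 50 μM. Separately, 6-base GT and complementary AC sequences, alone or hybridized 1:1 (10 min, 65 °C), were applied for 24 h. Phosphatidylserine exposure was quantified by flow cytometry with FITC-annexin V.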

caspase 3 [11] = experiment: Active caspase 3 by FITC-conjugated antibody flow cytometry; assay type: cell-based, human; settings: Jurkat, 72 h, 100 μg/ml, cytometric (FIG. 2A)
Description: (§4) To determine caspase activation, control and treated cells are washed, fixed, permeabilized and incubated with an FITC-conjugated antibody that recognizes the active form of the caspase (Pharmingen, San Diego, Calif.) using the conditions recommended by the manufacturer. Fluorescence associated with active caspase 3 is analyzed by flow cytometry on a FACSCALIBUR using the program CellQUEST (Becton Dickinson). Alternatively, caspase activation is determined colorimetrically using an assay based on the cleavage of a caspase-specific peptide conjugated to the color reporter molecule p-nitroanilide, which can be quantitated spectrophotometrically at a wavelength of 405 nm.
(§5) Jurkat T cell leukemia cells were incubated for 72 h with 33 base GT SEQ ID NO:66; 11 base GT SEQ ID NO:81 (bases 1-11 of GT SEQ ID NO:66), 11 base GT SEQ ID NO:82 (bases 12-22 of GT SEQ ID NO:66), 11 base GT SEQ ID NO:83 (bases 23-33 of GT SEQ ID NO:66) and 15 base ACG SEQ ID NO:67. Active caspase 3 (17-22 kDa) was determined using FITC conjugated antibody (Clone: C92-605) as in Example 28.

caspase 3 [12] = experiment: Caspase 3 activation, colorimetric (p-nitroanilide peptide cleavage); assay type: cell-based, human; settings: Jurkat, 72 h, 100 μg/ml
Description: as §4, §5
Caspase 3 activation also was determined colorimetrically as in Example 28.
Jurkat T cell leukemia cells were incubated for 72 h with 6 base GT SEQ ID NO:25. Caspase 3 activation was determined colorimetrically as in Example 28.

[13] = 5-fluorouracil 0.1 μg/ml, alone or with sequence at 1.0 μg/ml
[14] = 5-fluorouracil 1.0 μg/ml, alone or with sequence at 1.0 μg/ml
[15] = 5-fluorouracil 10.0 μg/ml, alone or with sequence at 1.0 μg/ml
[16] = sequence at 1.0 μg/ml, 5-fluorouracil 0.0 μg/ml

## GGGTGGGGGTGGGGGTGG [SEQ ID NO:69]
[1]
  % INHIBITION of Jurkat human leukemia T cell proliferation: 5%
[2]
  melting temperature (Tm): 76.3 °C

## GTGTGTGTGTGTGTGTGTGTGTGTGTG [SEQ ID NO:1] (chemistry not given here)
[1]
  % INHIBITION of Jurkat human leukemia T cell proliferation: 51%
[1]; [13]
  % INHIBITION of Jurkat proliferation, 5-Fluorouracil 0.1 μg/ml: 15%
[1]; [14]
  % INHIBITION of Jurkat proliferation, 5-Fluorouracil 1.0 μg/ml: 25%
[1]; [15]
  % INHIBITION of Jurkat proliferation, 5-Fluorouracil 10.0 μg/ml: 41%
[1]; cisplatin 0.1 μg/ml, alone or with sequence at 1.0 μg/ml
  % INHIBITION of Jurkat proliferation, Cisplatin 0.1 μg/ml: 18%
[1]; cisplatin 1.0 μg/ml, alone or with sequence at 1.0 μg/ml
  % INHIBITION of Jurkat proliferation, Cisplatin 1.0 μg/ml: 35%
[1]; cisplatin 10.0 μg/ml, alone or with sequence at 1.0 μg/ml
  % INHIBITION of Jurkat proliferation, Cisplatin 10.0 μg/ml: 76%
[1]; sequence 1.0 μg/ml, 0.1 and 1.0 μg/ml 5-fluorouracil
  potentiation of antineoplastic effect of 5-fluorouracil on Jurkat T cell proliferation: potentiated
[1]; [16]
  % INHIBITION of Jurkat proliferation, 5-Fluorouracil 0.0 μg/ml: 3%
[1]; sequence at 1.0 μg/ml, cisplatin 0.0 μg/ml
  % INHIBITION of Jurkat proliferation, Cisplatin 0.0 μg/ml: 3%
[3]; [13]
  % INHIBITION of MCF-7 proliferation, 5-Fluorouracil 0.1 μg/ml: 24%
[3]; [14]
  % INHIBITION of MCF-7 proliferation, 5-Fluorouracil 1.0 μg/ml: 35%
[3]; [15]
  % INHIBITION of MCF-7 proliferation, 5-Fluorouracil 10.0 μg/ml: 33%
[3]; sequence 1.0 μg/ml, 0.1 μg/ml 5-fluorouracil
  potentiation of antineoplastic effect of 5-fluorouracil on MCF-7 cell proliferation: did not potentiate
[3]; sequence 1.0 μg/ml, 0.1 μg/ml tamoxifen
  potentiation of antineoplastic effect of tamoxifen on MCF-7 cell proliferation: did not potentiate
[3]; [16]
  % INHIBITION of MCF-7 proliferation, 5-Fluorouracil 0.0 μg/ml: 8%
[3]; sequence at 1.0 μg/ml, tamoxifen 0.0 μg/ml
  % INHIBITION of MCF-7 proliferation, Tamoxifen 0.0 μg/ml: 8%
[3]; tamoxifen 0.1 μg/ml, alone or with sequence at 1.0 μg/ml
  % INHIBITION of MCF-7 proliferation, Tamoxifen 0.1 μg/ml: 19%
[3]; tamoxifen 1.0 μg/ml, alone or with sequence at 1.0 μg/ml
  % INHIBITION of MCF-7 proliferation, Tamoxifen 1.0 μg/ml: 24%
[3]; tamoxifen 10.0 μg/ml, alone or with sequence at 1.0 μg/ml
  % INHIBITION of MCF-7 proliferation, Tamoxifen 10.0 μg/ml: 20%
[4]
  % INHIBITION of EL-4 murine T lymphoma cell proliferation: 1%
[5]
  % INHIBITION of D-17 canine osteosarcoma cell proliferation: 23%
[6]
  % INHIBITION of CF-51 canine mammary gland cancer cell proliferation: 23%
[7]
  % of cells in phase: G0/G1: 40.6%
  % of cells in phase: G2/M: 0.3%
  % of cells in phase: SE: 35.6%
  % of cells in phase: SL: 9.3%
  % of cells in phase: SM: 14.2%
  Arrest (cell cycle): End SE
[8]
  % NUMA RELEASED: 22%
[9]
  tumor mass: less tumor mass than group 1 mice

## AACCACAAGCCCAAC (DNA, backbone not given here) [SEQ ID NO:67]
[1]
  % INHIBITION of Jurkat human leukemia T cell proliferation: 4%
[4]
  % INHIBITION of EL-4 murine T lymphoma cell proliferation: −6%
[5]
  % INHIBITION of D-17 canine osteosarcoma cell proliferation: 20%
[6]
  % INHIBITION of CF-51 canine mammary gland cancer cell proliferation: 20%
[7]
  % of cells in phase: G0/G1: 39.6%
  % of cells in phase: G2/M: 24.6%
  % of cells in phase: SE: 13.5%
  % of cells in phase: SL: 9.5%
  % of cells in phase: SM: 12.8%
  Arrest (cell cycle): None
[7]; M. phlei murA derived sequences
  cell cycle arrest: No
[10]
  % at cells in apoptosis: 0%
Caspase 3 [11]
  processing of inactive pro-caspase 3 to active caspase 3: did not induce processing of inactive pro-caspase 3 to active caspase 3
Caspase 3 [12]
  caspase 3 activity greater than in control cells: approximately the same as in control cells
